Laboratory results reported in ChEMBL document CHEMBL1139229, “Design and synthesis of potent inhibitors of the malaria parasite dihydroorotate dehydrogenase” (J Med Chem, 2007).
Active and inactive are the calls of the source. The calls are words filed in the database; no cut-off is given here.

Assays:
Plasmodium falciparum = assay: Antimalarial activity against Plasmodium falciparum NF54 3D7 after 48 hrs; format: functional, organism-based; conditions: NF54/3D7, 48 h
[1] = Selectivity for Plasmodium falciparum recombinant DHODH over human recombinant DHODH
[2] = molecular target: Dihydroorotate dehydrogenase (quinone), mitochondrial (Homo sapiens, UniProt Q02127); assay: Inhibition of human recombinant DHODH
[3] = molecular target: T1, Dihydroorotate dehydrogenase (Plasmodium falciparum, UniProt Q54A96); assay: (§1) Inhibition of recombinant Plasmodium falciparum DHODH
T1 sequence (Q54A96 whole entry): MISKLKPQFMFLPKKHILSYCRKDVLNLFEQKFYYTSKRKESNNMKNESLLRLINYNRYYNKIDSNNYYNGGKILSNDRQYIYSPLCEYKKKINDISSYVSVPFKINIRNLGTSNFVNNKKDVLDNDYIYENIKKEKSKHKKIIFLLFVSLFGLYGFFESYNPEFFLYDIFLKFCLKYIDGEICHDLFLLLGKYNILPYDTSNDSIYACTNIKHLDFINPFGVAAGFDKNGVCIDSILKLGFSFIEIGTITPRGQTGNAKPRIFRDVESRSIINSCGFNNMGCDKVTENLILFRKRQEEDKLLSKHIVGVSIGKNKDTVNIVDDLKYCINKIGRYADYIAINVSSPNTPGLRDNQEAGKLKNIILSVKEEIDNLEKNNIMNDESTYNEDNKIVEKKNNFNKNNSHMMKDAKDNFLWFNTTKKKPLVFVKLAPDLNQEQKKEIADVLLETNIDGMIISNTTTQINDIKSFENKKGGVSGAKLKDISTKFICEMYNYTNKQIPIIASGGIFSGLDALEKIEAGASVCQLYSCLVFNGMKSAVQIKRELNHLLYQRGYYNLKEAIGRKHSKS

[4] = molecular target: T2, Dihydroorotate dehydrogenase (Plasmodium falciparum) (UniProt Q54A96); assay: Inhibition of recombinant Plasmodium falciparum DHODH at 10 uM
T2 sequence (whole entry): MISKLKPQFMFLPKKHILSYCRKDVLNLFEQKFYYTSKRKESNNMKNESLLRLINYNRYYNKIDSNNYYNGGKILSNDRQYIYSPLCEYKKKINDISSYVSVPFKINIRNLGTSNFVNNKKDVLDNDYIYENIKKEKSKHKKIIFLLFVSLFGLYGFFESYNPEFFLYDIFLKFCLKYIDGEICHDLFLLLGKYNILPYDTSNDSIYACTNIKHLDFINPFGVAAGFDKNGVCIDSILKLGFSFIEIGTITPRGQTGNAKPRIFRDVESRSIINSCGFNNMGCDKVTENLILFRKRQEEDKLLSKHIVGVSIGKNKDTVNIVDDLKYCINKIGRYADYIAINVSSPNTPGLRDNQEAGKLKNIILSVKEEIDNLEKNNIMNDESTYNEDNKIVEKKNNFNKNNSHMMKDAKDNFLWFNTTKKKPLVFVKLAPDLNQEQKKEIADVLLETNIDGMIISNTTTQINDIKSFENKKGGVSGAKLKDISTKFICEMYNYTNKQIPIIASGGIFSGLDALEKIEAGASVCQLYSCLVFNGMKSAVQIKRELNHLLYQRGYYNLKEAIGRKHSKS

[5] = tested on: T3, Dihydroorotate dehydrogenase (quinone), mitochondrial (Plasmodium falciparum (isolate 3D7)), Q08210 [F188A]; assay: Inhibition of Plasmodium falciparum DHODH F188A mutant
T3 sequence (whole entry): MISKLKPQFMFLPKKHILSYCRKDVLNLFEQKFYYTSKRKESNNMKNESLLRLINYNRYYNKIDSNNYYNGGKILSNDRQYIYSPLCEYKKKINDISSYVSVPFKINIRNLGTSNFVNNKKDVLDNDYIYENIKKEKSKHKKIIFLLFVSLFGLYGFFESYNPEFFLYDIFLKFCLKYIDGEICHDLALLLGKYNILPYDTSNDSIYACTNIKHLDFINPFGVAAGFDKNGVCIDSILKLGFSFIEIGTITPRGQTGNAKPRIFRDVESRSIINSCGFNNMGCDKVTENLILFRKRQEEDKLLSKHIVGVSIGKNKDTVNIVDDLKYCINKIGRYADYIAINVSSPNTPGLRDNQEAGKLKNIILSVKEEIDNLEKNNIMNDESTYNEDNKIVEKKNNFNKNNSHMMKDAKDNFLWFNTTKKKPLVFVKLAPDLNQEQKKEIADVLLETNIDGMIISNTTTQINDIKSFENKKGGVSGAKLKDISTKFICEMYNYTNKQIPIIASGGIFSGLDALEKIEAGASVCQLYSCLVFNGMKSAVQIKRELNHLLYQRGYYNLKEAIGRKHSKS

[6] = compound: CCCCCCCCCCC1=C(C)C(=O)C(OC)=C(OC)C1=O; assay: as §1
[7] = compound: O=C1CC(C(=O)O)NC(=O)N1; assay: as §1

Sequence of Dihydroorotate dehydrogenase (quinone), mitochondrial (Q02127 whole entry): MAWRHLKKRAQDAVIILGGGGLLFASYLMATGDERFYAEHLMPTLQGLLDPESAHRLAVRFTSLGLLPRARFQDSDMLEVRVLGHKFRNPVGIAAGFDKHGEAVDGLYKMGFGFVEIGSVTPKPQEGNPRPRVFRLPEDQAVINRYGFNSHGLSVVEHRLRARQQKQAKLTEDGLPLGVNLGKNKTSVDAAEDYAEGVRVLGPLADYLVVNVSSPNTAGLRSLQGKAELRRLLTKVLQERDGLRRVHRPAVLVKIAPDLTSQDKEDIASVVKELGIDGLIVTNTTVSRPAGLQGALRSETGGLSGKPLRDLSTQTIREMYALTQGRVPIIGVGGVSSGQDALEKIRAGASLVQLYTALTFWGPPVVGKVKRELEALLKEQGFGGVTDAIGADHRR

IC50 (Plasmodium falciparum) [nM] | Selectivity ratio [1] | IC50 [2] [µM] | Ki [2] [µM] | IC50 [3] [µM] | Ki [3] [µM] | inhibition [4] [%] | Molecule | Activity [5] | Km [6] [µM] | Km [7] [µM]
– | – | > 500 | – | > 500 | – | – | CCOC(=O)C(=CNc1ccc(-c2ccccc2)cc1)C(=O)OCC | – | – | –
4000 | 1210 | 491 | 60.4 | 0.44 | 0.05 | > 10 | CCOC(=O)/C(C#N)=C\Nc1ccc2c(c1)c1ccccc1n2CC | – | – | –
– | 4 | 146 | 17.9 | 40 | 4.6 | > 10 | CCOC(=O)C(=CNc1ccc(C)cc1)C(=O)OCC | – | – | –
– | – | > 500 | – | > 500 | – | – | CCOC(=O)/C(C#N)=C\Nc1ccc(-c2ccccc2)cc1 | – | – | –
– | – | > 500 | – | 349 | 40.2 | > 10 | CCOC(=O)C(=CNc1ccc2[nH]cnc2c1)C(=O)OCC | – | – | –
– | 1 | 292 | 35.9 | 346 | 39.7 | > 10 | CCOC(=O)C(=CNc1ccccc1C)C(=O)OCC | – | – | –
– | 5 | 123 | 15.1 | 27.8 | 3.2 | > 10 | CCOC(=O)C(=CNc1ccc2[nH]ncc2c1)C(=O)OCC | – | – | –

Second part, the molecule before the results:

Molecule | IC50 (Plasmodium falciparum) [nM] | Selectivity ratio [1] | IC50 [2] [µM] | Ki [2] [µM] | IC50 [3] [µM] | Ki [3] [µM] | inhibition [4] [%] | Activity [5] | Km [6] [µM] | Km [7] [µM]
CCOC(=O)C(=CNc1ccc2sc3ccccc3c2c1)C(=O)OCC | 1800 | 182 | 29.6 | 3.63 | 0.16 | 0.02 | > 10 | – | – | –
CCOC(=O)/C(C#N)=C\Nc1cccc(-c2ccccc2)c1 | – | 10 | 220 | 0.027 | – | – | – | – | – | –
C/C(O)=C(\C#N)C(=O)Nc1ccc(C(F)(F)F)cc1 | – | – | – | – | – | – | – | inactive | – | –
Cc1cc(Br)ccc1NC(=O)c1ccc2ccccc2c1 | – | 2310 | – | 50.9 | 0.18 | 0.02 | – | inactive | – | –
CCOC(=O)C(=CNc1cccc(-c2ccccc2)c1)C(=O)OCC | – | 1 | 104 | 12.8 | 86.7 | 10 | – | – | – | –
Cc1c(C(=O)Nc2cc(Cl)cc(Cl)c2)cccc1[N+](=O)[O-] | – | 2280 | – | 64.4 | 0.23 | 0.03 | – | inactive | – | –
Dihydroorotate dehydrogenase (Plasmodium falciparum), Q54A96 (protein) MISKLKPQFMFLPKKHILSYCRKDVLNLFEQKFYYTSKRKESNNMKNESLLRLINYNRYYNKIDSNNYYNGGKILSNDRQYIYSPLCEYKKKINDISSYVSVPFKINIRNLGTSNFVNNKKDVLDNDYIYENIKKEKSKHKKIIFLLFVSLFGLYGFFESYNPEFFLYDIFLKFCLKYIDGEICHDLFLLLGKYNILPYDTSNDSIYACTNIKHLDFINPFGVAAGFDKNGVCIDSILKLGFSFIEIGTITPRGQTGNAKPRIFRDVESRSIINSCGFNNMGCDKVTENLILFRKRQEEDKLLSKHIVGVSIGKNKDTVNIVDDLKYCINKIGRYADYIAINVSSPNTPGLRDNQEAGKLKNIILSVKEEIDNLEKNNIMNDESTYNEDNKIVEKKNNFNKNNSHMMKDAKDNFLWFNTTKKKPLVFVKLAPDLNQEQKKEIADVLLETNIDGMIISNTTTQINDIKSFENKKGGVSGAKLKDISTKFICEMYNYTNKQIPIIASGGIFSGLDALEKIEAGASVCQLYSCLVFNGMKSAVQIKRELNHLLYQRGYYNLKEAIGRKHSKS | – | – | – | – | – | – | – | – | 13.4 | 31.4
